Test results taken from patent US20230074892A1, “BACTERIOPHAGE COMPOSITIONS AND USES THEREOF” (YALE UNIVERSITY, priority 2019, published 2023).

Key:
[1] = tested on: P. aeruginosa bacteria; test: Pyocyanin level in culture supernatant after treatment; type: cell-based; conditions: for bacteria pyocyanin relative to untreated control: single treatment, culture supernatant
Method: Shown is bacteria pyocyanin relative to untreated control. […] When P. aeruginosa bacteria are exposed to treatments along x-axis, the supernatant of the culture is tested for pyocyanin level.

[2] = tested on: PA14; test: Pyocyanin production in bacterial cultures; type: cell-based, Pseudomonas aeruginosa; conditions: antibiotic alone
Text: Deletion of type-IV pili is shown to attenuate virulence in P. aeruginosa, by impairing pyocyanin production, twitching motility, and biofilm formation (Persat et al. (2015) Proc. Natl. Acad. Sci. 112:7563-7568). Phage TIVP-H6 selects for phage resistance in P. aeruginosa via bacterial alteration or loss of type-IV pili.

| Structure (SMILES) | bacteria pyocyanin relative to untreated control [1] | effect of antibiotic on pyocyanin production [2] | killing of bacteria in the pyocyanin assay [1] |
| --- | --- | --- | --- |
| CC1(C)S[C@@H]2[C@H](NC(=O)C(C(=O)O)c3ccccc3)C(=O)N2[C@H]1C(=O)O (stereo partly drawn) [Carbenicillin] | do not reducte production |  |  |
| O=C(O)c1cn(C2CC2)c2cc(N3CCNCC3)c(F)cc2c1=O [Ciprofloxacin] | do not reducte production | either increased or did not affect |  |
| CC[C@H]1OC(=O)[C@H](C)[C@@H](O[C@H]2C[C@@](C)(OC)[C@@H](O)[C@H](C)O2)[C@H](C)[C@@H](O[C@@H]2O[C@H](C)C[C@H](N(C)C)[C@H]2O)[C@](C)(O)C[C@@H](C)C(=O)[C@H](C)[C@@H](O)[C@]1(C)O [Eythromycin] | causes reduced pyocyanin production |  | does not kill bacteria in this assay |
| CCn1cc(C(=O)O)c(=O)c2ccc(C)nc21 [Nalidixic acid] | do not reducte production |  |  |
